The experiment has as its target T1, catalytic domain of human Bub1 (amino acids 704-1085) (Homo sapiens, UniProt O43683).
T1 construct: catalytic domain of human Bub1 (amino acids 704-1085); His6 (N); made in house; host or cells: insect cells (Hi5)
As to the kind of experiment: Bub1 kinase assay (TR-FRET). In kind it is biochemical. As to conditions: 10 μM ATP, avg, read-out: Bub1 avg (IC50 [mol/l]). The method in brief:
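Readout is the 665/620 nm TR-FRET ratio from anti-phosphoserine antibody, Eu-labelled anti-mouse IgG and streptavidin-XL665, scaled between no-enzyme and uninhibited controls. Reaction: 1 μM biotinylated peptide, 10 μM ATP, 60 min, 22 °C, after 15 min compound preincubation with His6-Bub1 (704-1085, insect-expressed, ~200 ng/ml).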
(In general: Time-resolved FRET reads energy transfer from a long-lived donor to a nearby acceptor.)
T1 sequence (O43683 704-1085): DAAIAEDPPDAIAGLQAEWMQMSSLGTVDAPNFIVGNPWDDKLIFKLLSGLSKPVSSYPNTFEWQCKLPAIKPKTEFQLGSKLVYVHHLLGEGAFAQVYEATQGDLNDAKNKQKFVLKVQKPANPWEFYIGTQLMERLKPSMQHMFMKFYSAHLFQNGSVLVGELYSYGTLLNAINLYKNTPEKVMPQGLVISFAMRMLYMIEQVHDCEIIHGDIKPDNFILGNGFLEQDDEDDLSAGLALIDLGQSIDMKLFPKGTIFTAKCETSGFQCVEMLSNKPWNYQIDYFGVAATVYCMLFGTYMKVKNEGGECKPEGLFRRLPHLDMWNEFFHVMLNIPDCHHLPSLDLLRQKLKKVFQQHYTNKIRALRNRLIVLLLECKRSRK
For `Cc1nsc(Nc2ccc(C#N)cn2)c1C(=O)Nc1ccc(OC2CCNCC2)nc1` [Example 28, 5-[(5-Cyanopyridin-2-yl)amino]-3-methyl-N-[6-(piperidin-4-yloxy)pyridin-3-yl]-1,2-thiazole-4-carboxannide], the IC50 is at least 20 µM.
The same measure for `Cc1nsc(Nc2ccc(C#N)cn2)c1C(=O)Nc1ccc(OC2CCN(CCF)CC2)nc1` [Example 29, 5-[(5-Cyanopyridin-2-yl)amino]-N-(6-{[1-(2-fluoroethyl)piperidin-4-yl]oxy}pyridin-3-yl)-3-methyl-1,2-thiazole-4-carboxamide]: at least 20 µM; for `Cc1nsc(Nc2ccc(C#N)cn2)c1C(=O)Nc1ccc(OC2CCN(CC(F)(F)F)CC2)nc1` [Example 30, 5-[(5-Cyanopyridin-2-yl)amino]-3-methyl-N-(6-{[1-(2,2,2-trifluoroethyl)piperidin-4-yl]oxy}pyridin-3-yl)-1,2-thiazole-4-carboxamide]: at least 20 µM; for `Cc1nsc(Nc2cnc3ccccc3n2)c1C(=O)Nc1ccc(OC2CCCN(C(=O)OC(C)(C)C)C2)nc1` (centres unmarked) [Example 31, tert-Butyl 3-{[5-({[3-methyl-5-(quinoxalin-2-ylamino)-1,2-thiazol-4-yl]carbonyl}-amino)pyridin-2-yl]oxy}piperidine-1-carboxylate]: at least 20 µM.
Take `Cc1nsc(Nc2cnc3ccccc3n2)c1C(=O)Nc1ccc(OC2CCCNC2)nc1` (centres unmarked) [Example 32, 3-Methyl-N-[6-(piperidin-3-yloxy)pyridin-3-yl]-5-(quinoxalin-2-ylamino)-1,2-thiazole-4-carboxannide]: the IC50 is at least 20 µM.
The same measure for `Cc1nsc(Nc2cnc3ccccc3n2)c1C(=O)Nc1ccc(OC2CCCN(CC(F)F)C2)nc1` (centres unmarked) [Example 33, N-(6-{[1-(2,2-Difluoroethyl)piperidin-3-yl]oxy}pyridin-3-yl)-3-methyl-5-(quinoxalin-2-ylamino)-1,2-thiazole-4-carboxamide]: at least 20 µM; for `Cc1nsc(Nc2cc(C#N)ccn2)c1C(=O)Nc1ccc(OC2CCCN(C(=O)OC(C)(C)C)C2)nc1` (centres unmarked) [Example 34, tert-Butyl 3({5-[({5-[(4-cyanopyridin-2-yl)amino]-3-methyl-1,2-thiazol-4-yl}-carbonyl)amino]pyridin-2-yl}oxy)piperidine-1-carboxylate]: at least 20 µM.
With `Cc1nsc(Nc2cnc(C(F)(F)F)cn2)c1C(=O)Nc1ccc(OCCNCCC(F)(F)F)nc1` [Example 323, 3-methyl-5-{[5-(trifluoromethyl)pyrazin-2-yl]amino}-N-(6-{2-[(3,3,3-trifluoropropyl)amino]ethoxy}pyridin-3-yl)-1,2-thiazole-4-carboxamide], the IC50 was 18 µM.
The same measure for `Cc1nsc(Nc2cnc(C(F)(F)F)cn2)c1C(=O)Nc1ccc(OC2CCN(C(CF)CF)CC2)nc1` [Example 324, N-(6-{[1-(1,3-difluoropropan-2-yl)piperidin-4-yl]oxy}pyridin-3-yl)-3-methyl-5-{[5-(trifluoromethyl)pyrazin-2-yl]amino}-1,2-thiazole-4-carboxamide]: 19 µM; for `Cc1nsc(Nc2cnc(C(F)(F)F)cn2)c1C(=O)Nc1ccc(OCC2CCCN(CCF)C2)nc1` (centres unmarked) [Example 325, N-(6-{[1-(2-fluoroethyl)piperidin-3-yl]methoxy}pyridin-3-yl)-3-methyl-5-{[5-(trifluoromethyl)pyrazin-2-yl]amino}-1,2-thiazole-4-carboxamide]: at least 20 µM; for `Cc1nsc(Nc2cnc(C(F)(F)F)cn2)c1C(=O)Nc1ccc(OCC2CCCN(CC(F)(F)F)C2)nc1` (centres unmarked) [Example 326, 3-methyl-N-(6-{[1-(2,2,2-trifluoroethyl)piperidin-3-yl]methoxy}pyridin-3-yl)-5-{[5-(trifluoromethyl)pyrazin-2-yl]amino}-1,2-thiazole-4-carboxamide]: at least 20 µM.
The same measure for `Cc1nsc(Nc2cnc(C(F)(F)F)cn2)c1C(=O)Nc1ccc(OCC2CCCN(CC(F)F)C2)nc1` (centres unmarked) [Example 327, N-(6-{[1-(2,2-difluoroethyl)piperidin-3-yl]methoxy}pyridin-3-yl)-3-methyl-5-{[5-(trifluoromethyl)pyrazin-2-yl]amino}-1,2-thiazole-4-carboxamide]: at least 20 µM; for `Cc1nsc(Nc2cnc(C(F)(F)F)cn2)c1C(=O)Nc1ccc(OCC2CCCN(CCC(F)(F)F)C2)nc1` (centres unmarked) [Example 328, 3-methyl-5-{[5-(trifluoromethyl)pyrazin-2-yl]amino}-N-(6-{[1-(3,3,3-trifluoropropyl)piperidin-3-yl]methoxy}pyridin-3-yl)-1,2-thiazole-4-carboxamide]: at least 20 µM; for `Cc1nsc(Nc2cnc(C(F)(F)F)cn2)c1C(=O)Nc1ccc(OC2CCCN(CCF)C2)nc1` (centres unmarked) [Example 329, N-(6-{[1-(2-fluoroethyl)piperidin-3-yl]oxy}pyridin-3-yl)-3-methyl-5-{[5-(trifluoromethyl)pyrazin-2-yl]amino}-1,2-thiazole-4-carboxamide]: at least 20 µM.
The same measure for `Cc1nsc(Nc2cnc(C(F)(F)F)cn2)c1C(=O)Nc1ccc(OC2CCCN(CC(F)F)C2)nc1` (centres unmarked) [Example 330, N-(6-{[1-(2,2-difluoroethyl)piperidin-3-yl]oxy}pyridin-3-yl)-3-methyl-5-{[5-(trifluoromethyl)pyrazin-2-yl]amino}-1,2-thiazole-4-carboxamide]: at least 20 µM; for `Cc1nsc(Nc2cnc(C(F)(F)F)cn2)c1C(=O)Nc1ccc(OC2CCCN(CC(F)(F)F)C2)nc1` (centres unmarked) [Example 331, 3-methyl-N-(6-{[1-(2,2,2-trifluoroethyl)piperidin-3-yl]oxy}pyridin-3-yl)-5-{[5-(trifluoromethyl)pyrazin-2-yl]amino}-1,2-thiazole-4-carboxamide]: at least 20 µM.
For `Cc1nsc(Nc2cnc(C(F)(F)F)cn2)c1C(=O)Nc1ccc(OC2CCCN(CCC(F)(F)F)C2)nc1` (centres unmarked) [Example 332, 3-methyl-5-{[5-(trifluoromethyl)pyrazin-2-yl]amino}-N-(6-{[1-(3,3,3-trifluoropropyl)piperidin-3-yl]oxy}pyridin-3-yl)-1,2-thiazole-4-carboxamide], the IC50 is at least 20 µM.
The same measure for `Cc1nsc(Nc2cnc(C(F)(F)F)cn2)c1C(=O)Nc1ccc(OC2CCCN(C(CF)CF)C2)nc1` (centres unmarked) [Example 333, N-(6-{[1-(1,3-difluoropropan-2-yl)piperidin-3-yl]oxy}pyridin-3-yl)-3-methyl-5-{[5-(trifluoromethyl)pyrazin-2-yl]amino}-1,2-thiazole-4-carboxamide]: at least 20 µM; for `Cc1nsc(Nc2cnc(C(F)(F)F)cn2)c1C(=O)Nc1ccc(F)c(OCC2CCCN(CC(F)F)C2)c1` (centres unmarked) [Example 334, N-(3-{[1-(2,2-difluoroethyl)piperidin-3-yl]methoxy}-4-fluorophenyl)-3-methyl-5-{[5-(trifluoromethyl)pyrazin-2-yl]amino}-1,2-thiazole-4-carboxamide]: at least 20 µM.
The same measure for `Cc1nsc(Nc2cnc(C(F)(F)F)cn2)c1C(=O)Nc1ccc(F)c(OCC2CCCN(CCF)C2)c1` (centres unmarked) [Example 336, N-(4-fluoro-3-{[1-(2-fluoroethyl)piperidin-3-yl]methoxy}phenyl)-3-methyl-5-{[5-(trifluoromethyl)pyrazin-2-yl]amino}-1,2-thiazole-4-carboxamide]: at least 20 µM.
Turning to `Cc1nsc(Nc2cnc(C(F)(F)F)cn2)c1C(=O)Nc1ccc(F)c(OCC2CCCN(CC(F)(F)F)C2)c1` (centres unmarked) [Example 337, N-(4-fluoro-3-{[1-(2,2,2-trifluoroethyl)piperidin-3-yl]methoxy}phenyl)-3-methyl-5-{[5-(trifluoromethyl)pyrazin-2-yl]amino}-1,2-thiazole-4-carboxamide], the IC50 is at least 20 µM.
In the case of `Cc1nsc(Nc2cnc(C(F)(F)F)cn2)c1C(=O)Nc1ccc(F)c(OCC2CCCN(CCC(F)(F)F)C2)c1` (centres unmarked) [Example 338, N-(4-fluoro-3-{[1-(3,3,3-trifluoropropyl)piperidin-3-yl]methoxy}phenyl)-3-methyl-5-{[5-(trifluoromethyl)pyrazin-2-yl]amino}-1,2-thiazole-4-carboxamide], the IC50 was at least 20 µM.
The same measure for `Cc1nsc(Nc2cnc(C(F)(F)F)cn2)c1C(=O)Nc1ccc(F)c(OC[C@@H]2CCN(CC(F)(F)F)C2)c1` [Example 339, N-(4-fluoro-3-{[(3R)-1-(2,2,2-trifluoroethyl)pyrrolidin-3-yl]methoxy}phenyl)-3-methyl-5-{[5-(trifluoromethyl)pyrazin-2-yl]amino}-1,2-thiazole-4-carboxamide]: over 20 µM.
The same measure for `Cc1nsc(Nc2cnc(C(F)(F)F)cn2)c1C(=O)Nc1ccc(F)c(OC[C@@H]2CCN(CCC(F)(F)F)C2)c1` [Example 340, N-(4-fluoro-3-{[(3R)-1-(3,3,3-trifluoropropyl)pyrrolidin-3-yl]methoxy}phenyl)-3-methyl-5-{[5-(trifluoromethyl)pyrazin-2-yl]amino}-1,2-thiazole-4-carboxamide]: over 20 µM; for `Cc1nsc(Nc2cnc(C(F)(F)F)cn2)c1C(=O)Nc1ccc(F)c(OC[C@@H]2CCCN(CC(F)F)C2)c1` [Example 341, N-(3-{[(3R)-1-(2,2-difluoroethyl)piperidin-3-yl]methoxy}-4-fluorophenyl)-3-methyl-5-{[5-(trifluoromethyl)pyrazin-2-yl]amino}-1,2-thiazole-4-carboxamide]: over 20 µM; for `Cc1nsc(Nc2cnc(C(F)(F)F)cn2)c1C(=O)Nc1ccc(F)c(OC[C@@H]2CCCN(CC(F)(F)F)C2)c1` [Example 342, N-(4-fluoro-3-{[(3R)-1-(2,2,2-trifluoroethyl)piperidin-3-yl]methoxy}phenyl)-3-methyl-5-{[5-(trifluoromethyl)pyrazin-2-yl]amino}-1,2-thiazole-4-carboxamide]: over 20 µM.

(Values after patent publication US20170334899A1, “AMINO-SUBSTITUTED ISOTHIAZOLES” (Bayer Pharma Aktiengesellschaft, priority 2014, published 2017).)
